Key:
Assay in all cases: biochemical
Set-up in all cases: DiscoverX kinase panel, active-site competition binding (KINOMEscan type), percent of control at one concentration
Settings in all cases: competition binding, percent of control
PAK3 = PAK3 (Homo sapiens, UniProt O75914)
BRAF(V600E) = BRAF(V600E) (Homo sapiens, UniProt P15056, V600E)
EGFR(E746-A750del) = EGFR(E746-A750del) (Homo sapiens, UniProt P00533, DEL746-750)
[1] = molecular target: T1, ABL1(F317L)-phosphorylated (Homo sapiens, UniProt P00519, F317L)
T1 construct: phosphorylated
T1 sequence (P00519 whole entry F317L): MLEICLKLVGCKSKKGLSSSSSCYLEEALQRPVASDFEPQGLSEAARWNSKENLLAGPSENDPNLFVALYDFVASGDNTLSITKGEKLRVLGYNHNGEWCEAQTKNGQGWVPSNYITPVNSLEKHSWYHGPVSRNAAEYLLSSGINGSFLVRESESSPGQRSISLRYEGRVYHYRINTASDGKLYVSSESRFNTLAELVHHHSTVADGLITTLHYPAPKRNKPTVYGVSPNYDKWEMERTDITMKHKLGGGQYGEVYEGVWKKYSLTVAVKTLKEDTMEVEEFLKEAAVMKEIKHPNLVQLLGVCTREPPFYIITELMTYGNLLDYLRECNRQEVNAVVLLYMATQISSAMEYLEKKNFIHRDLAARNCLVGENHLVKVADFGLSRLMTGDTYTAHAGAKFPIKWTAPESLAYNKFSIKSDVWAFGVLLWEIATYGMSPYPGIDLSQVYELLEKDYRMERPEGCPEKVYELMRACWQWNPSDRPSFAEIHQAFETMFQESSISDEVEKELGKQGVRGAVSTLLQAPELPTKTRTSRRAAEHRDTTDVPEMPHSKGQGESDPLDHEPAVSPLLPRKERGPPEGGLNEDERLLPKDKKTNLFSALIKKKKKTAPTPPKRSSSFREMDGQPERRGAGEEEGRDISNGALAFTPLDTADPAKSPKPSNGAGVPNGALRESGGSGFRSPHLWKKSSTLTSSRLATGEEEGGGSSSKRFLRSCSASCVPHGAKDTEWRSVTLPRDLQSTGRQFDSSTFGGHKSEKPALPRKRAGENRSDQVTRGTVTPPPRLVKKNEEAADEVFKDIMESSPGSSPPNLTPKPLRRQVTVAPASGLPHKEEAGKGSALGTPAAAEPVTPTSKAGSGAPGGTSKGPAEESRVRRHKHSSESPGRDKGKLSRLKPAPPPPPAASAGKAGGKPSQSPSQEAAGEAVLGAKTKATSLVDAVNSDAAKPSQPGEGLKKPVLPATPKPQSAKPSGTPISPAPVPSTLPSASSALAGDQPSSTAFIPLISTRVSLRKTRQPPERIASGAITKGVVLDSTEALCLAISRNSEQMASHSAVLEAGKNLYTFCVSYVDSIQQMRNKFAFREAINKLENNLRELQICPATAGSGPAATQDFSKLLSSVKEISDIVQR

PIK3CA(Q546K) = PIK3CA(Q546K) (Homo sapiens, UniProt P42336, Q546K)
INSR = INSR (Homo sapiens, UniProt P06213)
IRAK1 = IRAK1 (Homo sapiens, UniProt P51617)
NIK = molecular target: T2, NIK (Homo sapiens, UniProt Q99558)
T2 construct: gene MAP3K14

CDK8 = CDK8 (Homo sapiens, UniProt P49336)
CDK8, sequence (P49336 whole entry): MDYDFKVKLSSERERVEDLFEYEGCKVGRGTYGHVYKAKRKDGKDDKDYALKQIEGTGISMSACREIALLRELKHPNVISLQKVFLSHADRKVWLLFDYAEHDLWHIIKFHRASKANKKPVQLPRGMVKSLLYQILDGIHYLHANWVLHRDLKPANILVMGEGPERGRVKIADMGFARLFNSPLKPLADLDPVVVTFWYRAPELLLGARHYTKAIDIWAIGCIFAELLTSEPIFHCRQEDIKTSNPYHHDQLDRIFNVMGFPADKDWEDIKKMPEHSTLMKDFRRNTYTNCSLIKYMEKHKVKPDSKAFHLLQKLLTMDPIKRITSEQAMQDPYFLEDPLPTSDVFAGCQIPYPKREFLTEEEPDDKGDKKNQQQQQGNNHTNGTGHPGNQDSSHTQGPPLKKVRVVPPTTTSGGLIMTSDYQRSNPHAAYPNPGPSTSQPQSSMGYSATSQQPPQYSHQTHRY

PIP5K2B = molecular target: T3, PIP5K2B (Homo sapiens, UniProt P78356)
T3 construct: gene PIP4K2B

FLT4 = FLT4 (Homo sapiens, UniProt P35916)
FLT4, sequence (P35916 whole entry): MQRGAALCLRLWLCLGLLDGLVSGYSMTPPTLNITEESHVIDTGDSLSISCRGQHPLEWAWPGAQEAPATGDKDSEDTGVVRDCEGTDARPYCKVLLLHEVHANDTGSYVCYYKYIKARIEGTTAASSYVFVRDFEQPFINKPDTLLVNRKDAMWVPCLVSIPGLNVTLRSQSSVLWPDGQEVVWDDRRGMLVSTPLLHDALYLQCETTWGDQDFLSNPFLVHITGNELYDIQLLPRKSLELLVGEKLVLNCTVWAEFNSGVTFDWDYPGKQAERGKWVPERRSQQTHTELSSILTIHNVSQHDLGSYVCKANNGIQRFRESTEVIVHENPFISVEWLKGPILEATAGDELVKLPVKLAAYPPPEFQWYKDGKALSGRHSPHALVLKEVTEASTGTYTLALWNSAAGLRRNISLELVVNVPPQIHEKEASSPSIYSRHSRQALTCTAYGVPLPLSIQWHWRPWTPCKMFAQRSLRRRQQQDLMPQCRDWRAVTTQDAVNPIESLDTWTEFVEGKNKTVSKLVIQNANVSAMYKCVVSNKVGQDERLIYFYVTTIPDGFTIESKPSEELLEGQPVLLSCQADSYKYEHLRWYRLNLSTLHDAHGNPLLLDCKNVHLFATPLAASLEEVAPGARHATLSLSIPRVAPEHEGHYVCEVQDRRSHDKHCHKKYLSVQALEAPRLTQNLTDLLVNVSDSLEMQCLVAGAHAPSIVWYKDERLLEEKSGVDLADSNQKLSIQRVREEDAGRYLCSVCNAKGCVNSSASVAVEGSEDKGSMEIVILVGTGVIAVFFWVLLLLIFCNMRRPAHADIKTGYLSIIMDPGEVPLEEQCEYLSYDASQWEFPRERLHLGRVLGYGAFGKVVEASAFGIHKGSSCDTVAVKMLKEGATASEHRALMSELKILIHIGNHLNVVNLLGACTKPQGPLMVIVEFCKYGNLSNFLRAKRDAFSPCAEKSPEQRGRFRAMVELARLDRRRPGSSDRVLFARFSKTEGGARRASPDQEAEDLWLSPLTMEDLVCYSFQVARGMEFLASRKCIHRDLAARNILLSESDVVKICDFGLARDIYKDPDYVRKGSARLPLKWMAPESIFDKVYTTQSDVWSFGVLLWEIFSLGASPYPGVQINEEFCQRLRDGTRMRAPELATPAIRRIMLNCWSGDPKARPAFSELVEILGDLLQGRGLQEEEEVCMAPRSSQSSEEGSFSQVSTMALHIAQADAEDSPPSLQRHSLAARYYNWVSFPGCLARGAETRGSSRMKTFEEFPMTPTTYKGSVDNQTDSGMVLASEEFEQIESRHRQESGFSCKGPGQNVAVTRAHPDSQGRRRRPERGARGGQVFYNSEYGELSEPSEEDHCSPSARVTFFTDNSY

TRKB = molecular target: T4, TRKB (Homo sapiens, UniProt Q16620)
T4 construct: gene NTRK2

EPHB4 = EPHB4 (Homo sapiens, UniProt P54760)
EGFR(L858R,T790M) = EGFR(L858R,T790M) (Homo sapiens, UniProt P00533, L858R/T790M)
CDC2L1 = molecular target: T5, CDC2L1 (Homo sapiens, UniProt P21127)
T5 construct: gene CDK11B

CDKL3 = CDKL3 (Homo sapiens, UniProt Q8IVW4)
VRK2 = VRK2 (Homo sapiens, UniProt Q86Y07)
VRK2, sequence (Q86Y07 whole entry): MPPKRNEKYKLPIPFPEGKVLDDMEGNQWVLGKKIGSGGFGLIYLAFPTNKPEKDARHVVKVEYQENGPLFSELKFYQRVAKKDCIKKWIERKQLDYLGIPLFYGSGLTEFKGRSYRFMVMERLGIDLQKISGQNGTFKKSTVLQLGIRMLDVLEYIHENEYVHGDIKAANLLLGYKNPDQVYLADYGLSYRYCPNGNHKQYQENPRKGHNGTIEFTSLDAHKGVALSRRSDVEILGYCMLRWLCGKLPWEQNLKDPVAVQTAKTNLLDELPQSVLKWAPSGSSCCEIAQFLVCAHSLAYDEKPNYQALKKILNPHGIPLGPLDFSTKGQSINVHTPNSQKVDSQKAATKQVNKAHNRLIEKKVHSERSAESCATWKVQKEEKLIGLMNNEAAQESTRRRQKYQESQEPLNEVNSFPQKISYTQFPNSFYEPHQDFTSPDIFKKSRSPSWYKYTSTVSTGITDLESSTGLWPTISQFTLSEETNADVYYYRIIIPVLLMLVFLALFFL

GRK3 = GRK3 (Homo sapiens, UniProt P35626)
GRK3, sequence (P35626 whole entry): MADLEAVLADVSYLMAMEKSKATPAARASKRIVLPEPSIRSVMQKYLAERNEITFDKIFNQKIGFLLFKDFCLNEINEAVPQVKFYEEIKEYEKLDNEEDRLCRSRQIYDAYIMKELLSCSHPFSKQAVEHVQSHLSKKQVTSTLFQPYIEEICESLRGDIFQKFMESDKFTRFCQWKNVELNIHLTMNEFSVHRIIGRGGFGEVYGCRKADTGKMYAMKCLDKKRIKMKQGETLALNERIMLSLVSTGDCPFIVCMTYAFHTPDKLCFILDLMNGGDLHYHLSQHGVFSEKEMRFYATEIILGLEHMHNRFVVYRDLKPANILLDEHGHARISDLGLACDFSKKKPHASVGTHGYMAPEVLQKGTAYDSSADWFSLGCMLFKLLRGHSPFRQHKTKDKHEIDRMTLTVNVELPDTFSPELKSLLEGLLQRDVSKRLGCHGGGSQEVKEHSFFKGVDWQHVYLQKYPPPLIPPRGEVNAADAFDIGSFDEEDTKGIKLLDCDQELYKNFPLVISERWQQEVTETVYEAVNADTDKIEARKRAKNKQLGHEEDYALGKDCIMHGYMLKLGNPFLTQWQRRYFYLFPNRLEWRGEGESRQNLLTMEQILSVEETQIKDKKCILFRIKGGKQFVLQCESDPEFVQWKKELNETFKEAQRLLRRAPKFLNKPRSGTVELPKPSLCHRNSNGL

FLT3(ITD,F691L) = FLT3(ITD,F691L) (Homo sapiens, UniProt P36888, F691L/ITD)
GRK2 = GRK2 (Homo sapiens, UniProt P25098)
ARK5 = molecular target: T6, ARK5 (Homo sapiens, UniProt O60285)
T6 construct: gene NUAK1
T6 sequence (O60285 whole entry): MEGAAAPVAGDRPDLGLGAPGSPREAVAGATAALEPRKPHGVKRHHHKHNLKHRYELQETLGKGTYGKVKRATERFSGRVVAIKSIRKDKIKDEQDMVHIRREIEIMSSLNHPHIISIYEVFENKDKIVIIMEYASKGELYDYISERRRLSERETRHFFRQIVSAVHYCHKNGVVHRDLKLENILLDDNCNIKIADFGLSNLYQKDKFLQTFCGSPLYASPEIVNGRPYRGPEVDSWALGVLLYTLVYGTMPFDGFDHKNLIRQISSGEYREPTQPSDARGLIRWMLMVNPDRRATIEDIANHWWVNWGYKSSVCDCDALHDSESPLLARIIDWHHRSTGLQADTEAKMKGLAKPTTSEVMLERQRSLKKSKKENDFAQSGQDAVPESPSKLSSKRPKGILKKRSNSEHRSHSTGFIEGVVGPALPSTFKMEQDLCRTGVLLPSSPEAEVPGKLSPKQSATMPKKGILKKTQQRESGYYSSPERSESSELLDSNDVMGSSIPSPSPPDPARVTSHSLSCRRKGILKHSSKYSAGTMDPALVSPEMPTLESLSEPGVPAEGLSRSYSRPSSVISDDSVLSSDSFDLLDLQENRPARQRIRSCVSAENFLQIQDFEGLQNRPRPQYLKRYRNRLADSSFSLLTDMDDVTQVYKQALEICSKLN

Q: For `COc1cc2c(cn1)N(C)C(=O)[C@@H](NC(=O)c1nc3n(n1)[C@H](c1ccccc1)CC3)CC2` [GNE684, (S)-N-((S)-7-methoxy-1-methyl-2-oxo-2,3,4,5-tetrahydro-1H-pyrido[3,4-b]azepin-3-yl)-5-phenyl-6,7-dihydro-5H-pyrrolo[1,2-b][1,2,4]triazole-2-carboxamide], which remaining binding at 10 µM (PAK3) is on record?
A: 99%

Q: What about the remaining binding at 10 µM (BRAF(V600E)) of the same molecule?
A: 100%

Q: What about the remaining binding at 10 µM (EGFR(E746-A750del)) of the same molecule?
A: 94%

Q: What about the remaining binding at 10 µM [1] of the same molecule?
A: 91%

Q: And the remaining binding at 10 µM (PIK3CA(Q546K))?
A: 49%

Q: And the remaining binding at 10 µM (INSR)?
A: 90%

Q: What about the remaining binding at 10 µM (IRAK1) of the same molecule?
A: 96%

Q: And the remaining binding at 10 µM (NIK)?
A: 100%

Q: And the remaining binding at 10 µM (CDK8)?
A: 97%

Q: And the remaining binding at 10 µM (PIP5K2B)?
A: 92%

Q: What about the remaining binding at 10 µM (FLT4) of the same molecule?
A: 96%

Q: And the remaining binding at 10 µM (TRKB)?
A: 83%

Q: And the remaining binding at 10 µM (EPHB4)?
A: 100%

Q: What about the remaining binding at 10 µM (EGFR(L858R,T790M)) of the same molecule?
A: 100%

Q: And the remaining binding at 10 µM (CDC2L1)?
A: 100%

Q: What about the remaining binding at 10 µM (CDKL3) of the same molecule?
A: 69%

Q: And the remaining binding at 10 µM (VRK2)?
A: 85%

Q: And the remaining binding at 10 µM (GRK3)?
A: 100%

Q: And the remaining binding at 10 µM (FLT3(ITD,F691L))?
A: 98%

Q: What about the remaining binding at 10 µM (GRK2) of the same molecule?
A: 94%

Q: And the remaining binding at 10 µM (ARK5)?
A: 94%

— paper PMC7206119, “RIP1 inhibition blocks inflammatory diseases but not tumor growth or metastases” (Cell Death and Differentiation, 2019)
